These results are taken from patent US20090170897A1, “Method of Treating Neuropathic Pain” (Pfizer, Inc., priority 2004, published 2009).

Structures are written as SMILES.

One experiment relates to CCI-induced pain in rats. The settings on record: literature; cited from earlier work.
Experiment [1] deals with Chronic Constriction Injury (CCI) rat model of neuropathic pain. The settings on record: literature; cited from earlier work.
Experiment [2] deals with Streptozocin (STZ)-induced diabetes neuropathy in the rat. As to the kind of experiment: STZ-induced dynamic allodynia (cotton bud, PWL). The settings on record: compound 25 mg/kg PO; gabapentin 100 mg/kg PO (positive control). The class given is in vivo. The method, then: (§1) Male Sprague Dawley rats weighing 150-400 g obtained from Charles River (Manston, Kent, UK.) were housed in groups of 3. All animals were kept under a 12 h light/dark cycle (lights on at 07 h 00 min) with food and water ad libitum. All experiments were carried out by an observer blind to the treatments and in accordance with the Home Office Animals (Scientific Procedures) Act 1986.
(§2) Diabetes was induced by a single intraperitoneal injection of streptozotocin (50 mg/kg) freshly dissolved in 0.9% sterile saline. Streptozotocin injection induces a reproducible mechanical allodynia within 3 weeks, lasting for at least 7 weeks (Chen and Pan, (Chen S R and Pan H L. Hypersensitivity of Spinothalamic Tract Neurons Associated With Diabetic Neuropathic Pain in Rats. J Neurophysiol 87: 2726-2733, 2002).
Dynamic allodynia was assessed by lightly stroking the plantar surface of the hind paw with a cotton bud. To avoid recording general motor activity, care was taken to perform this procedure in fully habituated rats that were not active. At least two measurements were taken at each time point, the mean of which represented the paw withdrawal latency (PWL). […] A pain withdrawal response was often accompanied with repeated flinching or licking of the paw. Dynamic allodynia was considered to be present if animals responded to the cotton stimulus within 8 sec of commencing stroking (Field et al, 1999).
(§3) All the experiments were conducted blind. Static allodynia was expressed as median [LQ; UQ] and analysed by Mann Whitney U test. Dynamic allodynia and thermal hyperalgesia were expressed as arithmetic mean±SEM and analysed by ANOVA.

The test system is the same in experiment [3]. The settings on record: literature; cited from earlier work.
Experiment [4] has the same test system. The conditions noted are these: literature; cited from earlier work. The source holds these as a separate data set.
Experiment [5] shares this test system. As to the kind of experiment: STZ-induced static allodynia (von Frey hairs, PWT). It is filed as in vivo. The settings on record: compound 25 mg/kg PO; gabapentin 100 mg/kg PO (positive control). The method, then: as §1, §2
Animals were habituated to wire bottom test cages prior to the assessment of allodynia. Static allodynia was evaluated by application of von Frey hairs (Stoelting, Wood Dale, Ill., USA.) in ascending order of force (0.6, 1, 1.4, 2, 4, 6, 8, 10, 15 and 26 grams) to the plantar surface of hind paws. Each von Frey hair was applied to the paw for a maximum of 6 sec, or until a withdrawal response occurred. Once a withdrawal response to a von Frey hair was established, the paw was re-tested, starting with the filament below the one that produced a withdrawal, and subsequently with the remaining filaments in descending force sequence until no withdrawal occurred. The highest force of 26 g lifted the paw as well as eliciting a response, thus represented the cut off point. Each animal had both hind paws tested in this manner. The lowest amount of force required to elicit a response was recorded as paw withdrawal threshold (PWT) in grams. Static allodynia was defined as present if animals responded to a stimulus of, or less than, 4 g, which is innocuous in naive rats (Field M J, Bramwell S, Hughes J, Singh L. Detection of static and dynamic components of mechanical allodynia in rat models of neuropathic pain: are they signalled by distinct primary sensory neurones? Pain, 1999; 83:303-11).
as §3

The test system of experiment [6] is Chronic Constriction Injury (CCI) rat model of neuropathic pain. The conditions noted are these: literature; cited from earlier work. This is another data set of the same source.
The test system of experiment [7] is Carrageenan-induced thermal hyperalgesia (CITH) in the rat. Put plainly: Carrageenan-induced thermal hyperalgesia (CITH), rat plantar test. It is filed as in vivo. The settings on record: 3 mg/kg SC. The method, then: as §1
Thermal hyperalgesia was assessed using the rat plantar test (Ugo Basile, Comerio, Italy), according to a method modified by Hargreaves et al. (1988). Briefly, rats were habituated to the apparatus that consisted of three individual Perspex boxes on a glass table. A mobile radiant heat source was located under the table and focused onto the desired paw. Paw withdrawal latencies (PWLs) were recorded three times for both hind paws of each animal, the mean of which represented baseline for left and right hind paws. The apparatus was calibrated to give a PWL of approximately 10 s in naïve rats. To prevent tissue damage of the plantar zone, a 22.5 sec cut-off was observed. Lambda carrageenan was injected intraplantarly (100 μl, 20 mg/ml) the right hind paw and baseline recordings of PWT were taken 2 hr post administration.
as §3

The target in the next experiment is T1, CRTH2 receptor (Homo sapiens, UniProt Q9Y5Y4).
T1 construct: Flag peptide (behind a 'prolac' signal peptide) (N); expressed in transfected cells
T1 sequence (Q9Y5Y4 1-395): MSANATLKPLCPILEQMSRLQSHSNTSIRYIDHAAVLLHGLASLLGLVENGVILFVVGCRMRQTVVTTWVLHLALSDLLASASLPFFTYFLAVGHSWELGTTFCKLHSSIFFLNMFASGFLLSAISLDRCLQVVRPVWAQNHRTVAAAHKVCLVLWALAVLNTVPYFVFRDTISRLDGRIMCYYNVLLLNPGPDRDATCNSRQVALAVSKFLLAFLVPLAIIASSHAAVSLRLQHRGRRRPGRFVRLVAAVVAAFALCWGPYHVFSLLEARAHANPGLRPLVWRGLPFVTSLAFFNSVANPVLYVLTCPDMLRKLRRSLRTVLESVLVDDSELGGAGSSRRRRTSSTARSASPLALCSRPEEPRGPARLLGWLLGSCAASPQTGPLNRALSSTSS
Put plainly: calcium mobilization in cells that express CRTH2 receptor. It is filed as cell-based. The conditions noted are these: absence of test compound, Indo-1 fluorescence; read-out: EC50 of increased [Ca2+]i. The method, then: The ratio of fluorescence produced by the calcium-bound dye to that produce by the unbound dye is used to estimate the intracellular calcium concentration. In an example method cells that express CRTH2 receptor are collected, and resuspended in fresh media at ˜2×10^5/ml the day before performing the calcium flux assay. Cells are incubated at 37° C. for not longer than 20-30 minutes, and then spun down and resuspended in 50 ml fresh PTI buffer (Hank's Buffer, pH 7.2-7.4; 10 mM Hepes; 1.6 mM CaCl2) containing Indo-1 AM, pre-warmed to 37° C., at a concentration of 10 million per ml. Cells are excited, and fluorescence is measured using a fluorimeter (Photon Technology Corporation, International). After the readout has stabilized, the time axis is reset, and PGD2 is added at a specific time point (e.g., 20 seconds). After response, the following reagents are added to the cuvette, to release and chelate total calcium, in the following order: 20 μl of 18% Triton X-100, 20 μl of 3M Tris, pH 8.5, and 20 μl of 0.5M EGTA, pH 8.5. The experiment is repeated in the presence and the absence of a test compound. […] Therefore, in the presence of an antagonist test compound, the EC50 would be expected to […].
Background: A change in cytosolic calcium serves as a functional read-out for many receptors and channels.

Take `Cc1ccc(-c2cc(C(F)(F)F)nn2-c2ccc(S(N)(=O)=O)cc2)cc1` [Celebrex]: in the experiment on CCI-induced pain in rats, the “reversal of CCI-induced pain in rats (Schäfers 2004)” value is reported as “no significant effect”.
As for `NCC1(CC(=O)O)CCCCC1` [Gabapentin], in experiment [1], the “static allodynia in CCI rat model (Field et al 1999)” value (“static allodynia in CCI rat model” for short) was “reverse both static and dynamic allodynia”. Moreover, in [2], the “effect on maintenance of STZ-induced dynamic allodynia” value is listed as “complete reversal”. Besides, the “static allodynia in STZ rat model (Field et al 1999)” value in experiment [3] was “reverse both static and dynamic allodynia”. Also, the “dynamic allodynia in STZ rat model (Field et al 1999)” value in experiment [4] is “reverse both static and dynamic allodynia”. Further, the “effect on maintenance of STZ-induced static allodynia” value in experiment [5] is recorded as “complete reversal”. For the same molecule, in experiment [6], the “dynamic allodynia in CCI rat model (Field et al 1999)” value (“dynamic allodynia in CCI rat model” below) is “reverse both static and dynamic allodynia”.
As to `CC(C)Cc1ccc(C(C)C(=O)O)cc1` (centres unmarked) [Ibuprofen], the “reversal of CCI-induced pain in rats (Schäfers 2004)” value with CCI-induced pain in rats is reported as “no significant effect”.
Turning to `CN1CC[C@]23c4c5ccc(O)c4O[C@H]2[C@@H](O)C=C[C@H]3[C@H]1C5` [Morphine, reference compound], the “static allodynia in CCI rat model” value in [1] is reported as “reverses static”. In addition, the “analgesic effect of positive control” value in experiment [7] is reported as “produced the expected analgesic effect”. The “change of PWLs in both hindpaws” value in [7] (30 min post dose) is reported as “increased the PWLs in both hindpaws over the baseline value of naïve rats”. Also, the “dynamic allodynia in CCI rat model” value in [6] was “not dynamic allodynia”.
Turning to `CCCCC[C@H](O)/C=C/[C@H]1C(=O)C[C@H](O)[C@@H]1C/C=C\CCCC(=O)O` [PGD2, Prostaglandin D2], the EC50 (in general, the concentration needed to bring the measured effect to its halfway point) on CRTH2 receptor came to 15 nM.
For `CC(C)C[C@H](CN)CC(=O)O` [Pregabalin], the “static allodynia in CCI rat model” value in experiment [1] is “reverse both static and dynamic allodynia”. In experiment [3], the “static allodynia in STZ rat model (Field et al 1999)” value is “reverse both static and dynamic allodynia”. Also, the “dynamic allodynia in STZ rat model (Field et al 1999)” value in experiment [4] was “reverse both static and dynamic allodynia”. Besides, the “dynamic allodynia in CCI rat model” value in [6] was “reverse both static and dynamic allodynia”.
